Measurements reported in patent publication US4933347A, “Diamidines and bis(imidazolines) for the treatment of and prophylaxis against pneumocystis carinii pneumonia” (University of North Carolina at Chapel Hill, priority 1988, dated 1990).

Experiments:
Pneumocystis carinii [1] = conditions: in vivo; cited from earlier work
Pneumocystis carinii [2] = assay: Treatment of Pneumocystis carinii pneumonia in Sprague-Dawley rats (extent of disease by histologic score); assay type: in vivo, male Sprague-Dawley rats; conditions: for Extent of Disease by Histologic Score: number of animals with score 2: 5-10% lung involved or small foci of infection
[3] = Toxicity of amidines in rats (standard laboratory procedure); assay type: in vivo; conditions: dose as in value; else not given in Table XIII (10 mg/kg test dose)
[4] = intramuscular and intravenous routes; cited from earlier work

Compound: N=C(N)c1ccc(OCCCCCOc2ccc(C(=N)N)cc2)cc1 [Example 12, Pentamidine, reference compound]
- Known effectiveness against Pneumocystis carinii pneumonia (Pneumocystis carinii [1]): effective in the treatment of, or prophylaxis against Pneumocystis carinii pneumonia
- Extent of Disease by Histologic Score: number of animals with score 0.5 (Pneumocystis carinii [2]; 0.1 mg/kg, 0.5 = <10 cysts found per 2 sections): 0 animals
- Extent of Disease by Histologic Score: number of animals with score 1 (Pneumocystis carinii [2]; 0.1 mg/kg, 1 = scattered cysts, <5% of lung involved): 0 animals
- Extent of Disease by Histologic Score: number of animals with score 2 (Pneumocystis carinii [2]; 0.1 mg/kg, 2 = scattered cysts): 0 animals
- Extent of Disease by Histologic Score: number of animals with score 3 (Pneumocystis carinii [2]; 0.1 mg/kg, 3 = scattered cysts, 10-50% of lung involved): 7 animals
- Extent of Disease by Histologic Score: number of animals with score 4 (Pneumocystis carinii [2]; 0.1 mg/kg, 4 = >50% of lung involved): 5 animals
- Extent of Disease by Histologic Score: number of animals with score 0.5 (Pneumocystis carinii [2]; 1 mg/kg, 0.5 = <10 cysts found per 2 sections): 1 animals
- Extent of Disease by Histologic Score: number of animals with score 1 (Pneumocystis carinii [2]; 1 mg/kg, 1 = scattered cysts, <5% of lung involved): 0 animals
- Extent of Disease by Histologic Score: number of animals with score 2 (Pneumocystis carinii [2]; 1 mg/kg, 2 = scattered cysts): 3 animals
- Extent of Disease by Histologic Score: number of animals with score 3 (Pneumocystis carinii [2]; 1 mg/kg, 3 = scattered cysts, 10-50% of lung involved): 5 animals
- Extent of Disease by Histologic Score: number of animals with score 4 (Pneumocystis carinii [2]; 1 mg/kg, 4 = >50% of lung involved): 3 animals
- Extent of Disease by Histologic Score: number of animals with score 4 (Pneumocystis carinii [2]; 10 mg/kg i.v. daily, 14 days, 4 = >50% of lung involved with many intense areas of focal infection): 0 animals
- Extent of disease by histologic score (combined): number of animals in scoring group 0.5 (Pneumocystis carinii [2]; Table XII composite, 10 mg/kg, 0.5 = <10 cysts found per 2 sections): 20 animals
- Extent of disease by histologic score (combined): number of animals in scoring group 1 (Pneumocystis carinii [2]; Table XII composite, 10 mg/kg, 1 = scattered cysts, <5% of lung involved): 26 animals
- Extent of disease by histologic score (combined): number of animals in scoring group 2 (Pneumocystis carinii [2]; Table XII composite, 10 mg/kg, 2 = scattered cysts, 5-10% of lung involved): 12 animals
- Extent of disease by histologic score (combined): number of animals in scoring group 3 (Pneumocystis carinii [2]; Table XII composite, 10 mg/kg, 3 = scattered cysts, 10-50% of lung involved): 2 animals
- Extent of disease by histologic score (combined): number of animals in scoring group 4 (Pneumocystis carinii [2]; Table XII composite, 10 mg/kg, 4 = >50% of lung involved): 0 animals
- Toxicity of amidines: Effect [3]: Some hypotension, edematous tails

Compound: N=C(N)c1ccc(OCCCCCOc2ccc(C(=N)N)cc2)cc1 [pentamidine isethionate]
- Side effects / toxicity in patients [4]: Some fatalities have been attributed to severe hypotension, hypoglycemia, and cardiac arrhythmias
